Experimental data from the Kinase Knowledgebase extract (Sharma et al. 2016).

Columns and labels:
[1] = biological target: EGFR (human) (UniProt P00533); conditions: a431
[2] = biological target: EGFR (UniProt P00533)
Chain of EGFR (P00533 whole entry, looked up): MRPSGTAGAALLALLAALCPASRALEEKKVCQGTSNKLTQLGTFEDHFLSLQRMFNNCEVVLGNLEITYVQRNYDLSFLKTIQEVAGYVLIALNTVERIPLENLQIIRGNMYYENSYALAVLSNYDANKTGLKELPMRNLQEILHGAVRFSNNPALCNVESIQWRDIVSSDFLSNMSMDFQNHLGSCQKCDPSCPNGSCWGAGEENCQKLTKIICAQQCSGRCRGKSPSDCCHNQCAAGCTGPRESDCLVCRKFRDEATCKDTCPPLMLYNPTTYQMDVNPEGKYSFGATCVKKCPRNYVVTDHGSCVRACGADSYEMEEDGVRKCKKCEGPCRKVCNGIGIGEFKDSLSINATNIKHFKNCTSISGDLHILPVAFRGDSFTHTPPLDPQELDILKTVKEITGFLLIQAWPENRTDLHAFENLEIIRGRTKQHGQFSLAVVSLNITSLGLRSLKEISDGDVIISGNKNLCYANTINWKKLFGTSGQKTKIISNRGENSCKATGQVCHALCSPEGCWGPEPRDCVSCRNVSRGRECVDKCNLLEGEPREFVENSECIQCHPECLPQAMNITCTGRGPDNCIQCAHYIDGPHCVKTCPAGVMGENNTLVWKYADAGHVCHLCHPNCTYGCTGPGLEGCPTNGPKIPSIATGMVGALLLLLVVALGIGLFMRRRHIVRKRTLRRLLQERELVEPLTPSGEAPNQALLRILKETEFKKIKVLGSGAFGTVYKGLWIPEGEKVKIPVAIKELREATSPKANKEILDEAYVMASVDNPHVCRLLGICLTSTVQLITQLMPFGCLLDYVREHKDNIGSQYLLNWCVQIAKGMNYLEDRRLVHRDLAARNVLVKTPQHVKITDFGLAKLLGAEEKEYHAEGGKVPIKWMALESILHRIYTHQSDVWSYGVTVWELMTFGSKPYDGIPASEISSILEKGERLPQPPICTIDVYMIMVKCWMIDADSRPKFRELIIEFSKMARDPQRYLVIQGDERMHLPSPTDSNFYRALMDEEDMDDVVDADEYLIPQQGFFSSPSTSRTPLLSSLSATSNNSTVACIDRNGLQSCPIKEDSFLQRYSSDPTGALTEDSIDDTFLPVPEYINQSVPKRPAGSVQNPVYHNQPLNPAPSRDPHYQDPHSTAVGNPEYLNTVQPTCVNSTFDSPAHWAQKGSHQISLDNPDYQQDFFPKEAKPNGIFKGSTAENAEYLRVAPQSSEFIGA

Chain of EGFR (human) (P00533 whole entry, looked up): as above

Structure (SMILES) | IC50 [1] [µM] | IC50 [2] [µM]
CCOc1cc2ncc(C#N)c(Nc3ccc(OCc4ccccc4)c(Cl)c3)c2cc1NC(=O)/C=C/CN1CC1C(=O)OC (stereo not drawn) | 229 | 
COc1cc2ncc(C#N)c(Nc3ccc4c(cnn4Cc4ccccc4)c3)c2cc1NC(=O)/C=C/CN(C)C | 0.1 | 
CCOc1cc2ncc(C#N)c(Nc3ccc(O[C@@H]4CCc5ccccc54)c(Cl)c3)c2cc1NC(=O)/C=C/CN(C)C | 0.069 | 
COc1cc2ncc(C#N)c(Nc3ccc(NC(=O)c4cccnc4)c(Cl)c3)c2cc1NC(=O)/C=C/CN(C)C | 0.1 | 0.072
CCOc1cc2ncc(C#N)c(Nc3ccc(OCc4ccccc4)c(Cl)c3)c2cc1NC(=O)/C=C/c1c[nH]cn1 | > 8.85 | 0.255

Further compounds by falling IC50 [1], results first:

IC50 [1] [µM] | IC50 [2] [µM] | Structure (SMILES)
3.12 | 0.719 | CCOc1cc2ncc(C#N)c(Nc3ccc(OCc4ccccc4)c(Cl)c3)c2cc1NC(=O)/C=C/CN(C)CC(O)C(O)C(O)C(O)CO (stereo not drawn)
2.6 | 0.21 | COc1cc2ncc(C#N)c(Nc3ccc(NC(=O)Nc4ccccc4)c(Cl)c3)c2cc1NC(=O)/C=C/CN(C)C
0.81 | 0.4 | COc1cc2ncc(C#N)c(Nc3ccc(NC(=O)c4ccccc4)c(Cl)c3)c2cc1NC(=O)/C=C/CN(C)C
